From the PolyMetriX glass transition set

SMILES | glass transition temperature [°C]
*C/C=C(\C)CS(*)(=O)=O (repeat unit) | 88.20
*CCCCCCCCCCOc1ccc(/C=C/c2ccc(OCCCCCCCCCCOP(=O)(O*)OCCCCCCCCCCOc3ccc(/N=N/c4ccc(C#N)cc4)cc3)cc2)cc1 (repeat unit) | 60.00
*Oc1c(C)cc(C2(c3cc(C)c(OC(=O)c4cccc(C(*)=O)c4)c(C)c3)CCC3CCCCC3C2)cc1C (repeat unit) | 261.00
*CC(*)(C)C(=O)Oc1ccc(C(C)(C)C)cc1 (repeat unit) | 91.00
*CC(CC)O* (repeat unit) | -71.50
*CC1CCC(COP(=O)(/N=N/c2ccc(Oc3ccc(/N=N/P(=O)(O*)OC)cc3)cc2)OC)CC1 (repeat unit) | 50.00
*/C=C/C1CC(*)C(C#N)C1 (repeat unit) | 140.00
*c1cccc(-n2c(=O)c3cc4c(=O)n(*)c(=O)c4cc3c2=O)c1 (repeat unit) | 430.00
*/C=C/c1sc(-c2ccc3c(c2)C(CCCCCC)(CCCCCC)c2cc(-c4sc(/C=C/C5=CC(=C(C#N)C#N)C=C(*)O5)c(CCCCCC)c4CCCCCC)ccc2-3)c(CCCCCC)c1CCCCCC (repeat unit) | 115.00
*CC(*)c1ccc(Cl)c(C)c1 (repeat unit) | 114.00
*Oc1ccc(C(C)(C)c2ccc(OC(=O)c3cccc(C(*)=O)c3)c(C)c2)cc1C (repeat unit) | 162.00
*CC(*)(C)C(=O)OCCO[Si](C)(C)C (repeat unit) | 89.00
*CC(*)(C)C(=O)OCCCCC (repeat unit) | 10.00
*OC(F)(F)C(*)(F)F (repeat unit) | -48.00
*/C=C/C1CC(*)C(C(=O)OCCCCCCCCOc2ccc(/C=C/c3ccc([N+](=O)[O-])cc3)cc2)C1 (repeat unit) | 51.00
*Oc1cccc(C(*)=O)c1 (repeat unit) | 162.00
*CCOc1ccc(OC(=O)c2ccc(C(=O)Oc3ccc(O*)cc3)c(OCCCCC)c2)cc1 (repeat unit) | 95.00
*OC(C)C(=O)NC(C)C(*)=O (repeat unit) | 57.7

Results, then the compound that gave them:

glass transition temperature [°C] | SMILES
209.00 | *CCCC(=O)Nc1ccc(NC(=O)CCCN2C(=O)c3ccc(C(=O)c4ccc5c(c4)C(=O)N(*)C5=O)cc3C2=O)cc1 (repeat unit)
265.00 | *c1ccc2c(c1)C(=O)N(c1ccc(NC(=O)C(F)(F)C(F)(F)C(F)(F)C(F)(F)C(F)(F)C(F)(F)C(=O)Nc3ccc(N4C(=O)c5ccc(C(*)(C(F)(F)F)C(F)(F)F)cc5C4=O)cc3)cc1)C2=O (repeat unit)
37.00 | */C=C/c1ccc(OC(=O)CCCCCCCCC(=O)Oc2cccc(-c3nnc(*)s3)c2)cc1 (repeat unit)
208.60 | *c1ccc(Oc2ccc(C(=O)c3cccc(C(=O)c4ccc(Oc5ccc(N6C(=O)c7ccc(Oc8ccc9c(c8)C(=O)N(*)C9=O)cc7C6=O)cc5)cc4)n3)cc2)cc1 (repeat unit)
129.00 | *c1ccc(-c2sc(-c3cc(SCCCC)c(*)s3)cc2SCCCC)cc1 (repeat unit)
5.20 | */C=N/c1ccc(C(=O)OCCCCOCCCCOCCCCOC(=O)c2ccc(/N=C/c3ccc4c(c3)c3cc(*)ccc3n4CC(CC)CCCC)cc2)cc1 (repeat unit)
15.00 | *CC(*)C(=O)OCCCCCCCCCCCCOC(=O)c1ccc(OC(=O)c2ccc(C#N)cc2)cc1 (repeat unit)
203.50 | *Nc1ccc(Nc2ccc(C(=O)c3ccc(C(=O)c4ccc(*)cc4)cc3)cc2)cc1 (repeat unit)
218.00 | *Oc1ccc(C(c2ccc(Oc3ccc(C(=O)Nc4ccc(NC(=O)c5ccc(*)cc5)cc4)cc3)cc2)(C(F)(F)F)C(F)(F)F)cc1 (repeat unit)
140.00 | *Oc1ccc(/C=C2\CC/C(=C\c3ccc(OC(=O)c4ccc(/N=C/c5ccc(/C=N/c6ccc(C(*)=O)cc6)cc5)cc4)c(OC)c3)C2=O)cc1OC (repeat unit)
260.00 | *C(=O)c1ccc(Oc2ccc(C3(c4ccc(Oc5ccc(C(=O)c6ccc7c(c6)C(=O)N(c6ccc(Oc8ccc(N9C(=O)c%10ccc(*)cc%10C9=O)cc8)cc6)C7=O)cc5)cc4)OC(=O)c4ccccc43)cc2)cc1 (repeat unit)
107.00 | *c1ccc(OCCOCCOCCOc2cccc(N3C(=O)c4ccc(Oc5ccc6c(c5)C(=O)N(*)C6=O)cc4C3=O)c2)cc1 (repeat unit)
180.00 | *CCCCCN1C(=O)c2ccc(C(c3ccc4c(c3)C(=O)N(*)C4=O)(C(F)(F)F)C(F)(F)F)cc2C1=O (repeat unit)
-59.50 | *NC(CCC(=O)OCCCCCCCC)C(*)=O (repeat unit)
252.00 | *C(=O)c1ccc2c(c1)C(=O)N(c1ccc(-c3ccc(Oc4ccc(C5(C)CC(C)(C)c6ccc(Oc7ccc(-c8ccc(N9C(=O)c%10ccc(*)cc%10C9=O)cc8)cc7C(F)(F)F)cc65)cc4)c(C(F)(F)F)c3)cc1)C2=O (repeat unit)
187.00 | *Oc1ccc(C(=O)c2ccc(NC(=O)c3ccc(C(=O)Nc4ccc(C(=O)c5ccc(*)cc5)cc4)cc3)cc2)cc1 (repeat unit)
312.00 | *C(=O)Nc1cccc(NC(=O)c2ccc3[nH]c(-c4cc(-c5nc6cc(*)ccc6[nH]5)cc(N5C(=O)c6ccccc6C5=O)c4)nc3c2)n1 (repeat unit)
319.00 | *c1ccc(Cc2ccc(N3C(=O)c4ccc(S(=O)(=O)c5ccc6c(c5)C(=O)N(*)C6=O)cc4C3=O)cc2)cc1 (repeat unit)
150.00 | *Nc1ccc(Cc2ccc(NC(=O)c3cc(NC(=O)CCCCCCCCCCN4C(=O)c5ccccc5C4=O)cc(C(*)=O)c3)cc2)cc1 (repeat unit)
200.00 | *Oc1ccc(NC(=O)Nc2ccccc2CCc2ccc(NC(=O)Nc3ccc(*)cc3)cc2)cc1 (repeat unit)
257.00 | *c1ccc(Oc2ccc(-c3ccc(Oc4ccc(N5C(=O)c6ccc(Oc7ccc(C8(c9ccc(Oc%10ccc%11c(c%10)C(=O)N(*)C%11=O)cc9)CCCCCCCCCCC8)cc7)cc6C5=O)cc4)cc3C)c(C)c2)cc1 (repeat unit)
180.00 | *c1ccc(Oc2ccc(C(C)(C)c3ccc(Oc4ccc(-c5nnc(*)o5)cc4)cc3)cc2)cc1 (repeat unit)
156.00 | *CCN(CCOC(=O)Nc1ccc(C)c(NC(=O)O*)c1)c1ccc(-c2nc3ccc([N+](=O)[O-])cc3o2)cc1 (repeat unit)
247.00 | *Oc1ccc(S(=O)(=O)c2ccc(Oc3ccc(C4(c5ccc(*)cc5)CCCCCC4)cc3)cc2)cc1 (repeat unit)
233.00 | *c1ccc(-c2ccc(NC(=O)c3cccc(C(=O)Nc4ccc(-c5ccc(N6C(=O)c7ccc(Oc8ccc9c(c8)C(=O)N(*)C9=O)cc7C6=O)cc5)cc4)c3)cc2)cc1 (repeat unit)
50.00 | *Oc1ccccc1C(=O)OC(=O)c1ccccc1OC(=O)CCCC(*)=O (repeat unit)
297.50 | *C(=O)Nc1cccc(NC(=O)c2ccc3[nH]c(-c4cccc(-c5nc6cc(*)ccc6[nH]5)c4)nc3c2)c1 (repeat unit)
